Measurements reported in publication PMC7449217, “The FDA-Approved Drug Nelfinavir Inhibits Lytic Cell-Free but Not Cell-Associated Nonlytic Transmission of Human Adenovirus” (Antimicrobial Agents and Chemotherapy, 2020).
Where a name gives a salt, the structure may show the parent alone. Read-outs that look alike come from different tables or passages of the source.

Experiments:
HBEC = type: cell-based; details: human
Description: (§1) Per 96-well plate, 15,000 A549 cells, 10,000 HeLa cells, 30,000 HBECs, 30,000 HCE cells, or 30,000 CMT-93 cells were seeded in 100 μl of the respective supplemented medium and allowed to settle for 1 h at room temperature (RT) prior to cell culture incubation at 37°C with 5% CO2 and 95% humidity. The following day, the medium was replaced with 50 μl of the respective virus stock dilution giving rise to 5 to 50 plaques per 96-well plate. Fifty microliters of nelfinavir to obtain a 0.1 to 50 μM final concentration or the DMSO solvent control was also added, both in supplemented medium. For each experiment, a noninfected, treated control was performed. For uphill plaque assays, the medium volume was increased to 150 μl with identical virus and drug concentrations. For wash-in/washout experiments, the virus was incubated on cells in supplemented medium for 1 h at 37°C, cells were washed with PBS, and a 100-μl drug dilution in supplemented medium was added. All experiments were performed in four technical replicates or as indicated. Cells were incubated under standard cell culture conditions. At the indicated times postinfection, the cells were fixed, and the nuclei were stained for 1 h at RT by the addition of 33 μl 16% (wt/vol) paraformaldehyde (PFA) and 4 μg/ml Hoechst 33342 (Sigma-Aldrich, St. Louis, MO, USA) in PBS. Cells were washed three times with PBS and stored in PBS supplemented with 0.02% N3 for infections with viruses harboring a GFP transgene. For wild-type (wt) viruses, cells were quenched in PBS supplemented with 50 mM NH4Cl, permeabilized using 0.2% (vol/vol) Triton X-100 in PBS, and blocked with 0.5% (wt/vol) bovine serum albumin (BSA) in PBS. Cells were incubated with 381.7 ng/ml mouse anti-HAdV hexon protein antibody (Mab8052; Sigma-Aldrich, St. Louis, MO, USA) and subsequently stained using 2 μg/ml goat anti-mouse-Alexa Fluor 594 (catalog number A21203 or A32742; Thermo Fisher Scientific, Waltham, MA, USA). Plates were imaged on either an IXM-XL or an IXM-C automated high-throughput fluorescence microscope (Molecular Devices, San Jose, CA, USA) using a 4× objective in wide-field mode. Hoechst staining was recorded in the 4′,6-diamidino-2-phenylindole (DAPI) channel, the fluorescein isothiocyanate (FITC)/GFP channel was acquired for viral GFP, and the tetramethyl rhodamine isothiocyanate (TRITC)/Texas Red channel was acquired for hexon immunofluorescence staining.
(§2) The infection phenotype for each well was quantified using Plaque2.0 ([101]). The number of plaques was determined based on the infection signal (viral GFP or hexon immunofluorescence staining). Nuclei stained with Hoechst were segmented by using CellProfiler ([178]). Infected nuclei were classified based on the median infection signal per nucleus in CellProfiler. Data were plotted, and the EC50 (infected and treated cells), the TC50 (noninfected, treated cells), as well as the corresponding standard errors (SE) were determined using curve fitting in GraphPad (version 8.1.2; GraphPad Software, Inc.) using three-parameter inhibitor concentration-versus-response nonlinear regression. The mean TI50 was calculated as the […] ratio of the means. The TI50 SE was calculated by error propagation.

HCE cells = type: cell-based; details: human
Description: as §1, §2

HeLa cells = type: cell-based; details: human
Description: as §1, §2

HAdV-A31 = experiment: fluorescence-based plaque-forming assay, A549 cells; type: cell-based, human adenovirus
Description: as §1, §2

HAdV-B11 = experiment: as above; type: cell-based, human adenovirus; details: for TI50 (TC50/IC50): HAdV-B11 in A549, 3 dpi, Hexon
Description: as §1, §2

HAdV-C1 = experiment: as above; type: cell-based, human adenovirus
Description: as §1, §2

MAdV-3-pIX-FS2A-GFP = experiment: fluorescence-based plaque-forming assay, CMT-93 cells; type: cell-based, mouse adenovirus
Description: Per 96-well plate, 15,000 A549 cells, 10,000 HeLa cells, 30,000 HBECs, 30,000 HCE cells, or 30,000 CMT-93 cells were seeded in 100 μl of the respective supplemented medium and allowed to settle for 1 h at room temperature (RT) prior to cell culture incubation at 37°C with 5% CO2 and 95% humidity. The following day, the medium was replaced with 50 μl of the respective virus stock dilution giving rise to 5 to 50 plaques per 96-well plate. Fifty microliters of nelfinavir to obtain a 0.1 to 50 μM final concentration or the DMSO solvent control was also added, both in supplemented medium. For each experiment, a noninfected, treated control was performed. […] Plates were imaged on either an IXM-XL or an IXM-C automated high-throughput fluorescence microscope (Molecular Devices, San Jose, CA, USA) using a 4× objective in wide-field mode. Hoechst staining was recorded in the 4′,6-diamidino-2-phenylindole (DAPI) channel, the fluorescein isothiocyanate (FITC)/GFP channel was acquired for viral GFP, and the tetramethyl rhodamine isothiocyanate (TRITC)/Texas Red channel was acquired for hexon immunofluorescence staining.
The infection phenotype for each well was quantified using Plaque2.0 ([101]). The number of plaques was determined based on the infection signal (viral GFP or hexon immunofluorescence staining). […] The mean TI50 was calculated as the EC50/TC50 ratio of the means. […]

HAdV-C2-dE3B-GFP = experiment: quantification of infectious progeny in the supernatant, titration on A549 cells; type: cell-based, human adenovirus; details: 1.25 μM, 7 dpi, HAdV-C2-dE3B-GFP-infected A549 cells
Description: A549 cells were seeded at 480,000 cells per 6-well plate in full DMEM and infected at 1,100 PFU HAdV-C2-dE3B-GFP per well the next day. Following 1 h of warm incubation, the supernatant was removed, and cells were washed with PBS and detached by trypsin digestion. Infected cells were centrifuged and resuspended in fresh medium to remove any unbound input virus and seeded at 180,000 cells/12-well plate in medium supplemented with 1.25, 3, or 10 μM nelfinavir or equivalent amounts of the DMSO solvent control. At the indicated times postinfection, the supernatant was harvested and cleared by centrifugation. Two hundred microliters of PBS/well was added to the infected monolayer. Cells were disrupted by three freeze-thaw cycles, and freon extraction was performed. The supernatant and cell lysate were stored at 4°C until titration on naive A549 cells. PFA-fixed, Hoechst-stained cells were imaged at 44 hpi using a 4× objective (NA, 0.20) on an IXM-XL epifluorescence microscope (Molecular Devices, San Jose, CA, USA). GFP-positive infected cells were classified based on the median nuclear GFP intensity using automated image analysis by CellProfiler ([178]).
Four hundred eighty thousand A549 cells were seeded per 6-well dish, inoculated with 1,100 PFU HAdV-C2-dE3B-GFP/well for 1 h at 37°C, washed with PBS, and detached by trypsin digestion. […]

A549 cells = details: cited from earlier work

Compound: Cc1c(O)cccc1C(=O)N[C@@H](CSc1ccccc1)[C@H](O)CN1C[C@H]2CCCC[C@H]2C[C@H]1C(=O)NC(C)(C)C [Nelfinavir, Nelfinavir mesylate]
- TC50 (HBEC; 6 days): 13.33 µM
- TC50 (HBEC; 8 days): 12.74 µM
- TC50 (HCE cells; 5 days): 29.73 µM
- TC50 (HCE cells; 8 days): 19.59 µM
- TC50 (HeLa cells; 4 days): 29.85 µM
- TC50 (HeLa cells; 5 days): 41.69 µM
- TI50 (TC50/IC50) (HAdV-A31; HAdV-A31 in A549, 6 dpi, Hexon): 1.35
- EC50 (HAdV-A31; Human adenovirus sp., HAdV-A31 in A549, fixation 6 dpi, read-out Hexon, plaque numbers): 14.1 µM
- TI50 (TC50/IC50) (HAdV-B11): 0.53
- TI50 (TC50/IC50) (HAdV-B11; listed as nelfinavir): < 1
- EC50 (HAdV-B11; Human adenovirus sp., HAdV-B11 in A549, fixation 3 dpi, read-out Hexon, plaque numbers): 28.9 µM
- TI50 (TC50/IC50) (HAdV-C1; HAdV-C1 in A549, 4 dpi, Hexon): 12.22
- EC50 (HAdV-C1; Human adenovirus sp., HAdV-C1 in A549, fixation 4 dpi, read-out Hexon, plaque numbers): 1.94 µM
- TI50 (TC50/IC50) (MAdV-3-pIX-FS2A-GFP; MAdV-3-pIX-FS2A-GFP in CMT-93, 4 dpi, GFP): 3.00
- EC50 (MAdV-3-pIX-FS2A-GFP; Murine mastadenovirus A, CMT93): 8.7 µM
- reduction of total yield of infectious particles in the supernatant (HAdV-C2-dE3B-GFP): 3 orders of magnitude
- Toxic (A549 cells): no
